The values below come from US12606572B2, “Substituted heterocycles and uses thereof” (Kumquat Biosciences Inc., priority 2023, dated 2026).

Each structure is given as a SMILES string.

The target of one assay is T1, KRAS WT (Homo sapiens, UniProt P01116).
T1 construct: made in house; host or cells: E. coli BL21 (DE3)
As to the kind of experiment: HTRF assay, interaction of GST-tagged K-Ras with His-tagged hSOS1 (KRAS wildtype). It counts as biochemical. The note with it: <500 nM, read-out: Inhibition of KRAS WT (IC50). Summed up: (§1)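 GST-K-Ras (G12S or WT) with anti-GST-Eu donor mixed with His-hSOS1 and anti-6His-XL665 acceptor in ~5 mM HEPES pH 7.4, 150 mM NaCl, 1 mM DTT, 0.05% BSA, 0.0025% Igepal. After ~10 min or longer, HTRF 665/620 nm ratio read.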

Another assay addresses T2, KRAS G12S (Homo sapiens, UniProt P01116, G12S).
T2 construct: made in house; host or cells: E. coli BL21 (DE3)
As to the kind of experiment: HTRF assay, interaction of GST-tagged K-Ras with His-tagged hSOS1 (KRAS G12S). The note with it: <500 nM, read-out: Inhibition of KRAS G12S (IC50). It counts as biochemical. A digest of the protocol:
as §1

T2 sequence (P01116 1-188 isoform P01116-2 G12S): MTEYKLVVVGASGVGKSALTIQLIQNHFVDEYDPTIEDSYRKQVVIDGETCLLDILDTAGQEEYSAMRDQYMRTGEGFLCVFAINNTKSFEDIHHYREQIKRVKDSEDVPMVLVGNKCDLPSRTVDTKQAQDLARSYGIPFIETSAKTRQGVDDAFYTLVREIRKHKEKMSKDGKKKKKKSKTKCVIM
T1 sequence (P01116 1-188 isoform P01116-2): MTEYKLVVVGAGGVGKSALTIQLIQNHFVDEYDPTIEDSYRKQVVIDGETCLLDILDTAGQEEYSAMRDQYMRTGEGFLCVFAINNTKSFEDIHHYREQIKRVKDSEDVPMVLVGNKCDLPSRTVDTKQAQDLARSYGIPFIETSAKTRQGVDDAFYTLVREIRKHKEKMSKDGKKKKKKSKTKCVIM

For the compound `CN(C)C/C=C/C(=O)N1CC(CN2CCOc3c(Cl)c(-c4ccc(F)c5sc(N)c(C#N)c45)c(F)c4nc(OC[C@@]56CCCN5C[C@H](F)C6)nc2c34)C1` [Compound 469, 2-amino-4-(8-chloro-4-((1-((E)-4-(dimethylamino)but-2-enoyl)azetidin-3-yl)methyl)-10-fluoro-2-(((2R, 7aS)-2-fluorotetrahydro-1H-pyrrolizin-7a(5H)-yl)methoxy)-5,6-dihydro-4H-[1,4]oxazepino[5,6,7-de]quinazolin-9-yl)-7-fluorobenzo [b]thiophene-3-carbonitrile], the IC50 on KRAS WT and at KRAS G12S was under 500 nM each time.

Take `C[C@@H]1[C@H](N2C[C@H](C)Oc3nc(-c4ccc(F)c5sc(N)c(C#N)c45)c(F)c4nc(OC[C@@]56CCCN5C[C@H](F)C6)nc2c34)CCN1C(=O)n1cnc(Cl)n1` [Compound 461, 2-amino-4-((S)-10-((2R,3R)-1-(3-chloro-1H-1,2,4-triazole-1-carbonyl)-2-methylpyrrolidin-3-yl)-4-fluoro-2-(((2R,7aS)-2-fluorotetrahydro-1H-pyrrolizin-7a(5H)-yl)methoxy)-8-methyl-9,10-dihydro-8H-7-oxa-1,3,6,10-tetraazacyclohepta[de]naphthalen-5-yl)-7-fluorobenzo[b]thiophene-3-carbonitrile]: the half-maximal inhibitory concentration (IC50) at KRAS WT and at KRAS G12S was under 500 nM throughout.

On to `C[C@@H]1CCOc2c(Cl)c(-c3ccc(F)c4sc(N)c(C#N)c34)c(F)c3nc(OC[C@@]45CCCN4C[C@H](F)C5)nc(c23)N1CC1CCCN1C(=O)n1ccnc1` (stereo partly drawn) [Compound 414, 4-((5R)-4-((1-(1H-imidazole-1-carbonyl)pyrrolidin-2-yl)methyl)-9-chloro-11-fluoro-2-(((2R,7aS)-2-fluorotetrahydro-1H-pyrrolizin-7a(5H)-yl)methoxy)-5-methyl-4,5,6,7-tetrahydro-[1,5]oxazocino[4,3,2-de]quinazolin-10-yl)-2-amino-7-fluorobenzo[b]thiophene-3-carbonitrile], for which the IC50 on KRAS WT and on KRAS G12S was under 500 nM throughout.

`C[C@@H]1[C@H](N2c3nc(OC[C@@]45CCCN4C[C@H](F)C5)nc4c(F)c(-c5ccc(F)c6sc(N)c(C#N)c56)c(Cl)c(c34)OC[C@@H]2C)CCN1C(=O)n1ccnc1` (single isomer, unassigned) [Compound 432]: the IC50 at KRAS WT and on KRAS G12S was under 500 nM throughout.

On to `COCC1([C@@H]2[C@H](CN3CCOc4c(Cl)c(-c5ccc(F)c6sc(N)c(C#N)c56)c(F)c5nc(OC[C@@]67CCCN6C[C@H](F)C7)nc3c45)CN2C(=O)n2cnc(C)c2)CC1` [Compound 477, 2-amino-4-(8-chloro-10-fluoro-2-(((2R,7aS)-2-fluorotetrahydro-1H-pyrrolizin-7a(5H)-yl)methoxy)-4-(((2S,3R)-2-(1-(methoxymethyl)cyclopropyl)-1-(4-methyl-1H-imidazole-1-carbonyl)azetidin-3-yl)methyl)-5,6-dihydro-4H-[1,4]oxazepino[5,6,7-de]quinazolin-9-yl)-7-fluorobenzo [b]thiophene-3-carbonitrile], for which the IC50 at KRAS WT and on KRAS G12S was under 500 nM each time.

`CC([C@H]1CCN1C(=O)n1cncn1)N1CCOc2c(Cl)c(-c3ccc(F)c4sc(N)c(C#N)c34)c(F)c3nc(OC[C@@]45CCCN4C[C@H](F)C5)nc1c23` (stereo partly drawn) [Compound 445, 4-(4-(1-((R)-1-(1H-1,2,4-triazole-1-carbonyl)azetidin-2-yl)ethyl)-8-chloro-10-fluoro-2-(((2R,7aS)-2-fluorotetrahydro-1H-pyrrolizin-7a (5H)-yl)methoxy)-5,6-dihydro-4H-[1,4]oxazepino[5,6,7-de]quinazolin-9-yl)-2-amino-7-fluorobenzo[b]thiophene-3-carbonitrile]: the IC50 on KRAS WT and at KRAS G12S was under 500 nM each time.

For `Cc1ncn(C(=O)N2C[C@@H](CN3CCOc4c(Cl)c(-c5ccc(F)c6sc(N)c(C#N)c56)c(F)c5nc(OC[C@@]67CCCN6C[C@H](F)C7)nc3c45)[C@H]2C2(C)CC2)c1C` (single isomer, unassigned) [Compound 476], the half-maximal inhibitory concentration (IC50) on KRAS WT and on KRAS G12S was under 500 nM each time.

Regarding `C[C@@H]1[C@H](N2CCOc3c(Cl)c(-c4ccc(F)c5sc(N)c(C#N)c45)c(F)c4nc(OC[C@@]56CCCN5C[C@H](F)C6)nc2c34)CCN1C(=O)n1ccnc1` (single isomer, unassigned) [Compound 474], the IC50 on KRAS WT and on KRAS G12S was under 500 nM each time.

Regarding `Cc1c(C#N)ncn1C(=O)N1C[C@@H](CN2CCOc3c(Cl)c(-c4ccc(F)c5sc(N)c(C#N)c45)c(F)c4nc(OC[C@@]56CCCN5C[C@H](F)C6)nc2c34)[C@H]1C1(C)CC1` (single isomer, unassigned) [Compound 452], the IC50 at KRAS WT and on KRAS G12S was under 500 nM in each case.

In the case of `CC1C(CN2c3nc(OC[C@@]45CCCN4C[C@H](F)C5)nc4c(F)c(-c5ccc(F)c6sc(N)c(C#N)c56)c(Cl)c(c34)OC[C@@H]2[C@H](C)O)CCN1C(=O)n1ccnc1` (stereo partly drawn) [Compound 457, 4-((5R)-4-((1-(1H-imidazole-1-carbonyl)-2-methylpyrrolidin-3-yl)methyl)-8-chloro-10-fluoro-2-(((2R,7aS)-2-fluorotetrahydro-1H-pyrrolizin-7a(5H)-yl)methoxy)-5-((S)-1-hydroxyethyl)-5,6-dihydro-4H-[1,4]oxazepino[5,6,7-de]quinazolin-9-yl)-2-amino-7-fluorobenzo[b]thiophene-3-carbonitrile], the half-maximal inhibitory concentration (IC50) on KRAS WT and on KRAS G12S was under 500 nM throughout.
